{"source": "paper PMC4898691", "about": "“Structure of a Berberine Bridge Enzyme-Like Enzyme with an Active Site Specific to the Plant Family Brassicaceae” (PLoS ONE, 2016)", "biological_target": "T1, AtBBE-like 28 (Arabidopsis thaliana, UniProt Q9FI21)", "T1 construct": "gene At5g44440; two chains in asymmetric unit", "T1 sequence (Q9FI21 28-533)": "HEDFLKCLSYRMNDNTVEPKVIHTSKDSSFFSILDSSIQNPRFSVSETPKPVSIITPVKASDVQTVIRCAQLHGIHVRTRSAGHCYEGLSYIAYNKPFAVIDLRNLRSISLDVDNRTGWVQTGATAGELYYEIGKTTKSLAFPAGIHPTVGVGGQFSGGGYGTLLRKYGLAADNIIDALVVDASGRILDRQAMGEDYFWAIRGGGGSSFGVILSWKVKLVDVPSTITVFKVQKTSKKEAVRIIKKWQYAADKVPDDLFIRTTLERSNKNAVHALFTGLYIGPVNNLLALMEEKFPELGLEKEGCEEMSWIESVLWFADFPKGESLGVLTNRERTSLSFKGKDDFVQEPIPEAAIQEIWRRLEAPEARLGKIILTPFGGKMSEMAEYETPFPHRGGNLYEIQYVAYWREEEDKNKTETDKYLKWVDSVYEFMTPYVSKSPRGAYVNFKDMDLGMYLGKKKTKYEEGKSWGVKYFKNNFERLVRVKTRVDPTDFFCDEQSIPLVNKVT", "experiment": "X-ray crystallography ([…] A)", "assay_type": "binding", "conditions": "covalent; mono-covalent, His111 to flavin 8alpha-position; crystals at 277 K, HEPES pH 7.0, Jeffamine ED 2001", "data": [{"molecule": "Cc1cc2nc3c(=O)[nH]c(=O)nc-3n(C[C@H](O)[C@H](O)[C@H](O)COP(=O)(O)OP(=O)(O)OC[C@H]3O[C@@H](n4cnc5c(N)ncnc54)[C@H](O)[C@@H]3O)c2cc1C", "note": "[FAD]", "values": [{"measurement": "X-ray crystallography (1.85 A)", "value": "the covalent linkage established by the conserved GGHD motif was clearly seen in the crystal structure"}]}]}
